Assay results taken from ChEMBL document CHEMBL1909046, “DrugMatrix in vitro pharmacology data”.

Tests used:
[1] = molecular target: T1, Alpha-1B adrenergic receptor (Rattus norvegicus, UniProt P15823); assay: DRUGMATRIX: Alpha-1B adrenergic receptor radioligand binding (ligand: prazosin); type: cell membranes, Wistar, Liver, Membrane; details: Not Active = under 50% inhibition at 10 µM
T1 sequence (P15823 whole entry): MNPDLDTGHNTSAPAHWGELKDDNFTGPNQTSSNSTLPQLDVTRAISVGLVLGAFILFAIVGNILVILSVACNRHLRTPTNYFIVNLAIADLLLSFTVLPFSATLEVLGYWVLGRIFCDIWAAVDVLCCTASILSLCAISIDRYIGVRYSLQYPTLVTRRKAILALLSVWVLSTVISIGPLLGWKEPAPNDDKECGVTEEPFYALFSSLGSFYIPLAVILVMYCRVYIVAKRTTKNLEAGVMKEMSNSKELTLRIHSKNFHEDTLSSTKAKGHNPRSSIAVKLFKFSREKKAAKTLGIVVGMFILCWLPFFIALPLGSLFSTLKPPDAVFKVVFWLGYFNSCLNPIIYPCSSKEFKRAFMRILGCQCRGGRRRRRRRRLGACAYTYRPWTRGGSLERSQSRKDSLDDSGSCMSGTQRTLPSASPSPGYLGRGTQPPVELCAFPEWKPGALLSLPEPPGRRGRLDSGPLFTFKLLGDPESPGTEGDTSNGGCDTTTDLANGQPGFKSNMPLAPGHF

[2] = molecular target: 5-hydroxytryptamine receptor 4 (Cavia porcellus, UniProt O70528); type: cell membranes, Dunkin-Hartley, Striatum, Membrane; also: in other assays of this panel Not Active means under 50% inhibition at 10 µM
Chain of 5-hydroxytryptamine receptor 4 (O70528 whole entry): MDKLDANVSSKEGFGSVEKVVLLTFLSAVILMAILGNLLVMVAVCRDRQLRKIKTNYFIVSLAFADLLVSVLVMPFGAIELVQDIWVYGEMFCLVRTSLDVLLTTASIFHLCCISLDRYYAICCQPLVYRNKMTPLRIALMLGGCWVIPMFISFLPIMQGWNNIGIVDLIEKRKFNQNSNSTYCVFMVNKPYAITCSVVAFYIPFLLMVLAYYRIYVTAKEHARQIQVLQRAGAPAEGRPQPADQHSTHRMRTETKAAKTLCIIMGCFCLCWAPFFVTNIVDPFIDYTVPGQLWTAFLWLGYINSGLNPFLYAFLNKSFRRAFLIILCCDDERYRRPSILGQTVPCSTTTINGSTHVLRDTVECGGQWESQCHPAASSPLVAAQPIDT

[3] = molecular target: Vasopressin V1a receptor (Homo sapiens, UniProt P37288); type: cell membranes, Membrane; details: hek293; also: in other assays of this panel Not Active means under 50% inhibition at 10 µM
Chain of Vasopressin V1a receptor (P37288 whole entry): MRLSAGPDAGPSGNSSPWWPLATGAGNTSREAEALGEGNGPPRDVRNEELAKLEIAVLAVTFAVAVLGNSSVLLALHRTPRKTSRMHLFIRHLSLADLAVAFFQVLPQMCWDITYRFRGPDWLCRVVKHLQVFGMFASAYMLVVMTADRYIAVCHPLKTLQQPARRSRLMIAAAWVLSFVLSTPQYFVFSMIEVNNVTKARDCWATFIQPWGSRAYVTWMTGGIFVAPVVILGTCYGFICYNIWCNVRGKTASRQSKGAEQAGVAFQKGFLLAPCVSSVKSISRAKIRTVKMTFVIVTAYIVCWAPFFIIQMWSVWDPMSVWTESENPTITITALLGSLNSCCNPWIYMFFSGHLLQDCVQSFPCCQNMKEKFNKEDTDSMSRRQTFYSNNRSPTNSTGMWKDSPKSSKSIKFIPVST

[4] = molecular target: T2, C-C chemokine receptor type 4 (Homo sapiens, UniProt P51679); type: cell membranes, Chem-1, Membrane; details: chem-1; also: in other assays of this panel Not Active means under 50% inhibition at 10 µM
T2 sequence (P51679 whole entry): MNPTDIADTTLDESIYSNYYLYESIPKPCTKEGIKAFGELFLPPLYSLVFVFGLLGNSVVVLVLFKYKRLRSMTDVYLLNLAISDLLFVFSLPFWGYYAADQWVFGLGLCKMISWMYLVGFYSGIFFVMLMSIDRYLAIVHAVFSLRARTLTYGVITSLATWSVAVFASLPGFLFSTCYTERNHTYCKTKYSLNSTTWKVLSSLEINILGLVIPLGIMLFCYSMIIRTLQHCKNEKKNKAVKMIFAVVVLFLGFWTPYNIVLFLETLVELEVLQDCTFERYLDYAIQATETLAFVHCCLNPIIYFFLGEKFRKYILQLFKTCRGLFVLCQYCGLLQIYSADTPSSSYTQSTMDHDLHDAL

[5] = molecular target: T3, C-X-C chemokine receptor type 1 (Homo sapiens, UniProt P25024); also: in other assays of this panel Not Active means under 50% inhibition at 10 µM
T3 sequence (P25024 whole entry): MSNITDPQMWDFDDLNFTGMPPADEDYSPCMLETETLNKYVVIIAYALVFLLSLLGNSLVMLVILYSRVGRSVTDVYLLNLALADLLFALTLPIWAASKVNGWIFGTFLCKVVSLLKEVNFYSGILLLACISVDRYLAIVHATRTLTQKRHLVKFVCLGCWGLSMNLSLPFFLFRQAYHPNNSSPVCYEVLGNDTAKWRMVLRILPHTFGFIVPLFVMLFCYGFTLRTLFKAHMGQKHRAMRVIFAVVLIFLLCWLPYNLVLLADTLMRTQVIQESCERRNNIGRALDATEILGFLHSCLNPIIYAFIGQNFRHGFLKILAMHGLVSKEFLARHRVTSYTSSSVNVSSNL

[6] = molecular target: Glycine receptor (Rattus norvegicus, UniProt P22771+P24524+P07727+P20781); type: cell membranes, Wistar, Spinal cord, Membrane; also: in other assays of this panel Not Active means under 50% inhibition at 10 µM
[7] = molecular target: Estrogen receptor beta (Homo sapiens, UniProt Q92731); details: sf9; also: in other assays of this panel Not Active means under 50% inhibition at 10 µM
Chain of Estrogen receptor beta (Q92731 whole entry): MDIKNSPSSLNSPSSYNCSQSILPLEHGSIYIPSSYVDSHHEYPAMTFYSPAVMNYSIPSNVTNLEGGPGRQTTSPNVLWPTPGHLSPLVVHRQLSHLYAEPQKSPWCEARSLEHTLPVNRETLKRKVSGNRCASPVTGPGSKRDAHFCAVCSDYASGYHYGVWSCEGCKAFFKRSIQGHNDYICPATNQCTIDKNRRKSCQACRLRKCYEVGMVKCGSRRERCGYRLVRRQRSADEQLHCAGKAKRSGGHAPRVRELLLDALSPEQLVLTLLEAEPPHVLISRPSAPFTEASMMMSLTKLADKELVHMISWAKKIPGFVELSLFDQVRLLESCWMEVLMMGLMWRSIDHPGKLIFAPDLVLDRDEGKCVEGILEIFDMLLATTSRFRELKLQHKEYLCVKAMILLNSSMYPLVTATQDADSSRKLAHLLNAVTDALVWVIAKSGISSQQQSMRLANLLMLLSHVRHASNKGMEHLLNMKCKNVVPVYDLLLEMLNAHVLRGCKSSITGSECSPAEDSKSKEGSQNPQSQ

Clc1cc(Cl)c(OCC#CI)cc1Cl [HALOPROGIN]
Not Active: IC50 [1] | IC50 [2] | IC50 [3] | IC50 [4] | IC50 [5] | IC50 [6] | IC50 [7]

CCN(CCO)CCCC(C)Nc1ccnc2cc(Cl)ccc12 (stereo not drawn) [HYDROXYCHLOROQUINE]
Not Active: IC50 [1] | IC50 [2] | IC50 [3] | IC50 [4] | IC50 [5] | IC50 [6] | IC50 [7]

Cc1ccnc2c1NC(=O)c1cccnc1N2C1CC1 [NEVIRAPINE]
Not Active: IC50 [1] | IC50 [2] | IC50 [3] | IC50 [4] | IC50 [5] | IC50 [6] | IC50 [7]

CO[C@H]1O[C@@H]2O[C@@]3(C)CC[C@H]4[C@H](C)CC[C@@H]([C@H]1C)[C@@]24OO3
Not Active: IC50 [1] | IC50 [2] | IC50 [3] | IC50 [4] | IC50 [5] | IC50 [6] | IC50 [7]

CN(CCOc1ccc(C[C@H](Nc2ccccc2C(=O)c2ccccc2)C(=O)O)cc1)c1ccccn1
Not Active: IC50 [1] | IC50 [2] | IC50 [3] | IC50 [4] | IC50 [5] | IC50 [6] | IC50 [7]

COc1ccc(C[C@H](N)C(=O)N[C@H]2[C@@H](O)[C@H](n3cnc4c(N(C)C)ncnc43)O[C@@H]2CO)cc1 [PUROMYCIN]
Not Active: IC50 [1] | IC50 [2] | IC50 [3] | IC50 [4] | IC50 [5] | IC50 [6] | IC50 [7]

O=c1[nH]c2ccccc2c2ccccc12
Not Active: IC50 [1] | IC50 [2] | IC50 [3] | IC50 [4] | IC50 [5] | IC50 [6] | IC50 [7]

COPPER(II) OXIDE
Not Active: IC50 [1] | Ki [1] | IC50 [2] | Ki [2] | IC50 [3] | Ki [3] | IC50 [4] | Ki [4] | IC50 [5] | Ki [5] | IC50 [6] | Ki [6] | IC50 [7] | Ki [7]
